Reference: ChEMBL document CHEMBL3988442, “University of Dundee, Small-Polar-MMV Screening Library” (2021)
Where “and” joins values, the source holds several entries; their conditions need not be identical. Equal values may be shown once.

Test system: Mycobacterium tuberculosis
Assay: Cornell M. t heat shock assay
Assay type: functional, organism-based
Settings: for IC50: Mycobacterium tuberculosis

Compound | IC50 [µM] | pIC50
c1ccc(-c2nc(CN3CCCC(Cn4cncn4)C3)cs2)cc1 (stereo not given) | 54.6 | 
COc1cc(C2Nc3cc(Cl)ccc3C3=NCCN32)ccc1O (stereo not given) | > 100 | 
COc1ccc(N2CCC(NCc3csc(C(C)C)n3)CC2)cc1 | > 100 | 
Cc1noc(NC(=O)c2ccccc2)n1 | 62.6 | 4.405
O=C(c1cncs1)N1CCCC1c1ccn[nH]1 (stereo not given) | > 100 | 
COCCN(C)c1ccc(NCc2ccsc2)nc1 | > 100 | 
Nc1cc(-c2cccs2)nn(CC(=O)NCC2CCCCC2)c1=O | > 100 | 
CCCN1CCC(c2cc(CCOc3ccc(C(F)(F)F)cc3)[nH]n2)C1 (stereo not given) |  | < 4 and 4.339
CC(Cn1cccn1)NCc1csc(COc2ccc(F)cc2)n1 (stereo not given) | 17.2 | 
Cn1ccnc1C(NCc1ccccc1)c1ccc(F)cc1 (stereo not given) | > 100 | 
Cc1cc(O)cc(=O)n1CCCC(=O)Nc1n[nH]c2cc(Br)ccc12 | > 100 | 
COc1cc(C(=O)Nc2nc(C)no2)cc(OC)c1Br | 21 | 4.518
Cn1c(CCN2CCN(CCc3ccccc3)CC2)nc2ccccc21 | > 100 | 
NC(=O)NC(=O)CCN1CCN(c2nccs2)CC1 | 35.1 | 
O=c1[nH]c(CCN2CCCC2Cn2cccn2)nc2ccccc12 (stereo not given) | 47.5 | 
COc1cc(-c2cc(NC3CCCC3)nc3[nH]ccc23)nc(N)n1 | 2.7 | 
Cc1cc(N2CCOCC2)ccc1NC(C)c1nc(C(C)(C)C)no1 (stereo not given) | > 100 | 
NCC1CCC(c2c(C(=O)NCCO)sc3ccccc23)CC1 (stereo not given) | > 100 | 
COc1ccc(OCc2cc(C(=O)N3CCCCO3)n[nH]2)c(Cl)c1 | > 100 | 
Cc1c(CN(C)c2cc(C3CCCNC3)ncn2)[nH]c2ccccc12 (stereo not given) | > 100 | 
COc1cc(C(=O)Nc2nc(C)no2)cc(Cl)c1OC | 24.8 | 4.499
Cc1ccc(CNC(c2cccc(F)c2)c2nccn2C)o1 (stereo not given) | > 100 | 

Compound | IC50 [µM] | pIC50
CCOc1cccc2c1OCC(=O)N(c1ccc(N(C)C)cc1)C2 | 44.1 | 
Oc1cc(C2CCCN(Cc3cccs3)C2)nc(-c2ccccn2)n1 (stereo not given) |  | 4.835 and 5.179
O=S(=O)(Nc1cnc(N2CCCC2)nc1)c1ccc(OC(F)(F)F)cc1 | > 100 | 
c1ccc2nc(CN3CCCC3c3noc(C4CC4)n3)ccc2c1 (stereo not given) | 23.8 | 
Cc1cc(N2CCOCC2)ccc1NC(C)c1nc(C(C)C)no1 (stereo not given) | > 100 | 
Cn1ccnc1C(NCc1ccc(Br)cc1)c1ccccc1 (stereo not given) | 17.7 | 
COc1ccc2c(c1)OCC(CNc1cc(N)nc(SC)n1)C2 (stereo not given) | 62.6 | 
Cc1cccc(CNC(Cc2ccsc2)c2nccs2)n1 (stereo not given) | 49.9 | 
O=C(NCCC(O)c1ccoc1)Nc1cccs1 (stereo not given) | > 100 | 
CCNc1ncc(C(=O)NCc2ccc3nsnc3c2)cn1 | > 100 | 
CC1CCCN(c2ncc(-c3ccccc3F)c(-c3nccn3C)n2)C1 (stereo not given) |  | 4.289 and 4.7
COc1cc(C(=O)Nc2nc(C)no2)ccc1OC(F)F | 41.3 | 4.585
COc1ccccc1C(NCc1ccc(SC)cc1)c1nccn1C (stereo not given) | 48.8 | 
CCN1CCN(c2ccc(NC(C)c3nc(C(C)C)no3)c(C)c2)CC1 (stereo not given) | > 100 | 
Cc1cc(-c2cnc(NC3CCCC3)nc2-c2ccc(C)o2)on1 | > 100 | 4.052
CCC(CN1CCOCC1)n1cncc1-c1ccc2c(c1)CCN2CC (stereo not given) | 98.5 | 
COc1ccc(CN2CCc3c(nc(-c4ccccn4)[nH]c3=O)C2)cc1 |  | 4.829 and 5.147
COc1cccc(S(=O)(=O)NC(=O)CCC2CCCC2)c1 | > 100 | 
COCCCNC(=O)CN(C)C(=O)c1cc(Cl)ccc1O | 87.8 | < 4
O=C1CO[C@H]2CN(Cc3cccc4[nH]ccc34)C[C@@H]2N1C1CCOCC1 | > 100 | 4.298
COc1ccccc1C(C)N(C)Cc1nc2c(cnn2C)c(=O)[nH]1 (stereo not given) | > 100 | 
COc1cc(CNC(c2ccccc2)c2nccn2C)cc(OC)c1 (stereo not given) | 2.41 | 

Compound | IC50 [µM] | pIC50
CCOc1ncccc1NC(=O)N1CCN(c2ccc(O)cc2)CC1 | > 100 | 
CCCn1cc(-c2ccnc(NC3CCCc4ccccc43)n2)c(C)n1 (stereo not given) | 21.4 | 
CCOc1cccc(COC(=O)c2cscn2)n1 | > 100 | 
COc1cccc(CN2CCCC2c2cncc(Nc3nncs3)n2)c1 (stereo not given) | 26.9 | 
c1cc(CN2CCCCC2c2ccc(Nc3cnccn3)nc2)ccn1 (stereo not given) |  | < 4 and < 4.31
Cc1cc(C)n(CC2CCCN2CC(=O)Nc2cc(C(C)C)no2)n1 (stereo not given) |  | 4.348 and 4.706
Cc1cc(Nc2ccc(F)cn2)cc(C2CCN(Cc3ncc[nH]3)C2)n1 (stereo not given) | > 100 | 
CC1c2ccc(F)cc2CCN1C(=O)c1[nH]c(=O)[nH]c(=O)c1N (stereo not given) | > 100 | 
Cc1ccccc1OC1CCN(CC(=O)Nc2cn(C)nc2C)CC1 | > 100 | 
Cc1[nH]ccc1C(=O)N1CCOCC12CCCC2 | > 100 | 
O=C(NCC(O)c1ccsc1)Nc1cccs1 (stereo not given) | 67.5 | 
O=C(Nc1ccnc2ccnn12)c1ccc(N2CCC(O)CC2)cc1 | 74.1 | 
COc1ccc(CNC(Cc2ccsc2)c2ccc(C)cn2)cc1OC (stereo not given) | 25.6 | 
c1nnc(Nc2cncc(C3CCCN3CC3CC3)n2)s1 (stereo not given) | 29.8 | 
CCN1c2ccc(-c3cncn3CC(=O)NC(C)(C)C)cc2CC1C (stereo not given) | > 100 | 
CC(C)C1CCCN1CCCc1nc(-c2cccs2)no1 (stereo not given) | > 100 | 
CCn1nc(C)c(CNC(=O)c2nnc3ccc(Cl)cc3n2)c1C | 17.3 | 
CC(CCSc1ccccc1)N1CCN(C(=O)c2cccs2)CC1 (stereo not given) | > 100 | 
CC1c2cc(F)ccc2CCN1C(=O)c1[nH]c(=O)[nH]c(=O)c1N (stereo not given) | 66.9 | 
Cn1ccnc1-c1nc(NC2CCCC2)ncc1-c1cccc(F)c1 | 40.3 | 
COc1ccc(CCNCc2c(C)nn(C)c2N(C)C)cc1OC | > 100 | 
CC(C)Cn1nc(-c2ccc(C(=O)O)cc2)cc1-c1ccc(F)cc1 | 97.1 | 

Compound | IC50 [µM] | pIC50
Cc1ccc(C2CCCN2S(=O)(=O)N(C)CCc2ccccn2)o1 (stereo not given) | > 100 | 
COc1ccccc1CN1CCc2c(nc(-c3ccccn3)[nH]c2=O)C1 | 3.35 | 
COc1cccc2sc(N3CCN(C(=O)c4cc(C)on4)CC3)nc12 | > 100 | 
Cc1ccc(C(C)N(C)Cc2nc3c(cnn3C)c(=O)[nH]2)s1 (stereo not given) | > 100 | 
O=C(CCC(=O)N1CCC(c2noc3cc(F)ccc23)CC1)NC1CC1 | > 100 | 
Cc1ccsc1CN(c1nc(CCN)nc2ccccc12)C1CC1 | 49.6 | 
Cc1ccc(CN(CCCn2ccnc2)Cc2c(F)cccc2F)s1.O=C(O)CC(O)(CC(=O)O)C(=O)O | 23.6 | 4.654
CC(=O)N1CCC[C@@H](NCc2c[nH]c3ccccc23)[C@@H]1c1ccc(C)s1 | > 100 | 
CNc1cc(C2CN(Cc3scnc3C)CCO2)nc(C)n1 (stereo not given) | > 100 | 
Cc1ccc(CNC(c2ccccc2)c2nccn2C)cc1 (stereo not given) | 19.9 | 
c1ccc(CCN2CCCC2c2cncc(Nc3nncs3)n2)cc1 (stereo not given) | 25.5 | 
CCCNC(=O)C(C)n1nc(-c2ccc(C)o2)cc(N)c1=O (stereo not given) | > 100 | 
Cc1cccc(CN2CCCC2c2cncc(Nc3nncs3)n2)c1 (stereo not given) | 17.1 | 
Cc1cnc(NC(=O)c2csc(NCC(C)C)n2)s1 | 1.99 | 
Cc1cc(O)cc(=O)n1CCCC(=O)Nc1n[nH]c2cccc(F)c12 | > 100 | 
Cc1cnn(CC2CCCN2Cc2nc(C)c3ccccc3n2)c1 (stereo not given) | 34.9 | 
CC(C)c1ncc2c(n1)CN(CCCc1nc3ccccc3o1)CC2 | > 100 | 
CN(C)S(=O)(=O)N1CCCCCC1c1cc(-c2ccc(F)cc2)no1 (stereo not given) | > 100 | 4.075
CCOc1cccc2c1OCC(C(=O)NS(=O)(=O)c1c(C)noc1C)=C2 | 69.3 | < 4
